From publication PMC8286840, “Identifying SARS-CoV-2 antiviral compounds by screening for small molecule inhibitors of Nsp3 papain-like protease” (Biochemical Journal, 2021)
Where a name gives a salt, the structure may show the parent alone. Read-outs that look alike come from different tables or passages of the source.

Tests used:
[1] = biological target: T1, SARS-CoV-2 PLpro (nsp3 1564–1878) (Severe acute respiratory syndrome coronavirus 2, UniProt P0DTD1); test: biochemical; design: FRET-quenched peptide (Pro3) cleavage by PLpro, 10 min pre-incubation, slope over 20 min, normalised to no-compound control; conditions: low concentration screen, read-out: % of control remaining
[2] = biological target: T1, SARS-CoV-2 PLpro (nsp3 1564–1878); test: biochemical; design: FRET-quenched peptide (Pro3) cleavage by PLpro, 10 min pre-incubation, slope over 20 min, normalised to no-compound control; conditions: high concentration screen, read-out: % of control remaining

How did the remaining activity at 1.25 µM ([1]; Well no.=2218) turn out when `O=c1[nH]c(=O)n([C@H]2C[C@H](O)[C@@H](CO)O2)cc1I` [Idoxuridine] was run?
The remaining activity at 1.25 µM was 98.6%.

And the remaining activity at 1.25 µM ([1]; Well no.=8851)?
The remaining activity at 1.25 µM was 105%.

And the remaining activity at 3.75 µM ([2]; Well no.=2218)?
The remaining activity at 3.75 µM was 102%.

What about the remaining activity at 3.75 µM ([2]; Well no.=8851) of the same compound?
The remaining activity at 3.75 µM was 107%.

Which remaining activity at 1.25 µM ([1]; Well no.=8626) does the source give for `COc1cccc(-n2c(=O)[nH]c3cc(Cl)n(-c4ccc(-c5cccc(OC)c5O)cc4)c3c2=O)c1` [GSK621] here?
Its remaining activity at 1.25 µM is 101%.

And the remaining activity at 3.75 µM ([2]; Well no.=8626)?
Its remaining activity at 3.75 µM is 99.7%.

For `COc1ccc(CC(=O)NC(N=C(NC#N)Nc2cccc3ncccc23)C(C)(C)C)cc1OC` (stereo not drawn) [A-740003], which remaining activity at 1.25 µM ([1]; Well no.=5421) is on record?
Its remaining activity at 1.25 µM is 92%.

What about the remaining activity at 3.75 µM ([2]; Well no.=5421) of the same compound?
The remaining activity at 3.75 µM was 96.3%.

What does the source list for `CCCCC/C=C\C/C=C\CCCCCCCCCCC(=O)O` [12(Z), 15(Z)-Heneicosadienoic acid]?
remaining activity at 1.25 µM ([1]; Well no.=4454): 95.1%; remaining activity at 3.75 µM ([2]; Well no.=4454): 89.9%

Which results are given for `Cn1sc(=O)n(Cc2ccccc2)c1=O` [GSK-3b Inhibitor I]?
remaining activity at 1.25 µM ([1]; Well no.=2460): 106%; remaining activity at 3.75 µM ([2]; Well no.=2460): 108%

Which results are given for `CN1C(=O)[C@@H](NC(=O)c2cc(Cc3ccccc3)on2)COc2ccccc21` [GSK'481]?
remaining activity at 1.25 µM ([1]; Well no.=6534): 104%; remaining activity at 3.75 µM ([2]; Well no.=6534): 98.7%

With `Nc1ncnc2nc[nH]c12` [Adenine sulfate] as the compound, how does the remaining activity at 1.25 µM ([1]; Well no.=5006) read?
The remaining activity at 1.25 µM was 97.9%.

And the remaining activity at 3.75 µM ([2]; Well no.=5006)?
Its remaining activity at 3.75 µM is 85.9%.

How did the remaining activity at 1.25 µM ([1]; Well no.=1073) turn out when `CN(C)C(=O)C(CCN1CCC(O)(c2ccc(Cl)cc2)CC1)(c1ccccc1)c1ccccc1` [Loperamide hydrochloride] was run?
The remaining activity at 1.25 µM was 94.7%.

And the remaining activity at 3.75 µM ([2]; Well no.=1073)?
The remaining activity at 3.75 µM was 98.4%.

Which results are given for `Nc1ccc(C(=O)O)c(O)c1` [4-Aminosalicylic acid]?
remaining activity at 1.25 µM ([1]; Well no.=2119): 99.3%; remaining activity at 3.75 µM ([2]; Well no.=2119): 101%

For `COc1ccccc1N1CCN(CCCCN2C(=O)c3ccccc3C2=O)CC1` [NAN-190 hydrobromide], which remaining activity at 1.25 µM ([1]; Well no.=1141) is on record?
The remaining activity at 1.25 µM was 97%.

What about the remaining activity at 3.75 µM ([2]; Well no.=1141) of the same compound?
Its remaining activity at 3.75 µM is 99.5%.

What does the source list for `CCCCCC(O)/C=C/C=O` (racemic)?
remaining activity at 1.25 µM ([1]; Well no.=4337): 104%; remaining activity at 3.75 µM ([2]; Well no.=4337): 102%

Which results are given for `Cc1cc(O)c2c(c1)C(=O)c1cc(O)cc(O)c1C2=O` [Emodin]?
remaining activity at 1.25 µM ([1]; Well no.=749): 98.9%; remaining activity at 1.25 µM ([1]; Well no.=3282): 92%; remaining activity at 3.75 µM ([2]; Well no.=749): 96.3%; remaining activity at 3.75 µM ([2]; Well no.=3282): 93.4%

Which results are given for `CC(C)Cc1ccc(C(C)C(=O)O)cc1` (stereo not drawn) [Ibuprofen]?
remaining activity at 1.25 µM ([1]; Well no.=1901): 95.1%; remaining activity at 3.75 µM ([2]; Well no.=1901): 97%

With `O=C(O)COc1cccc(CN(Cc2ccc(-n3cccn3)cc2)S(=O)(=O)c2cccnc2)c1` [Taprenepag] as the compound, how does the remaining activity at 1.25 µM ([1]; Well no.=6182) read?
Its remaining activity at 1.25 µM is 96%.

What about the remaining activity at 3.75 µM ([2]; Well no.=6182) of the same compound?
Its remaining activity at 3.75 µM is 97.6%.

`CNCCc1ccccn1` [Betahistine (dihydrochloride)] was tested. Which remaining activity at 1.25 µM ([1]; Well no.=6621) did it give?
The remaining activity at 1.25 µM was 98.5%.

What about the remaining activity at 3.75 µM ([2]; Well no.=6621) of the same compound?
Its remaining activity at 3.75 µM is 92.4%.

For `CS(=O)(=O)c1cccc(CNc2nc(Nc3ccc4c(c3)CCC(=O)N4)ncc2C(F)(F)F)c1` [PF 573228], which remaining activity at 1.25 µM ([1]; Well no.=4712) is on record?
Its remaining activity at 1.25 µM is 96.1%.

And the remaining activity at 3.75 µM ([2]; Well no.=4712)?
Its remaining activity at 3.75 µM is 101%.

Which results are given for `CC1(C)CCC(c2ccc(Cl)cc2)=C(CN2CCN(c3ccc(C(=O)NS(=O)(=O)c4ccc(N[C@H](CCN5CCOCC5)CSc5ccccc5)c(S(=O)(=O)C(F)(F)F)c4)cc3)CC2)C1` [Navitoclax]?
remaining activity at 1.25 µM ([1]; Well no.=6580): 93.1%; remaining activity at 1.25 µM ([1]; Well no.=8224): 103%; remaining activity at 3.75 µM ([2]; Well no.=6580): 92.2%; remaining activity at 3.75 µM ([2]; Well no.=8224): 94.8%

With `CCOC(=O)C1=C(C)NC(C)=C(C(=O)OC)C1c1cccc([N+](=O)[O-])c1` (stereo not drawn) [Nitrendipine] as the compound, how does the remaining activity at 1.25 µM ([1]; Well no.=796) read?
The remaining activity at 1.25 µM was 92.2%.

What about the remaining activity at 1.25 µM ([1]; Well no.=1719) of the same compound?
Its remaining activity at 1.25 µM is 99.4%.

And the remaining activity at 3.75 µM ([2]; Well no.=796)?
Its remaining activity at 3.75 µM is 94.4%.

And the remaining activity at 3.75 µM ([2]; Well no.=1719)?
Its remaining activity at 3.75 µM is 103%.

Which results are given for `Cn1c(NCCN(CCO)CCCc2ccc([N+](=O)[O-])cc2)cc(=O)n(C)c1=O` [Nifekalant]?
remaining activity at 1.25 µM ([1]; Well no.=1975): 105%; remaining activity at 3.75 µM ([2]; Well no.=1975): 102%

How did the remaining activity at 1.25 µM ([1]; Well no.=1161) turn out when `O=C(O)[C@H]1NCCC[C@H]1C(=O)O` was run?
Its remaining activity at 1.25 µM is 106%.

What about the remaining activity at 3.75 µM ([2]; Well no.=1161) of the same compound?
Its remaining activity at 3.75 µM is 106%.

What does the source list for `OCCN1CCN(CCCN2c3ccccc3Sc3ccc(Cl)cc32)CC1` [Perphenazine]?
remaining activity at 1.25 µM ([1]; Well no.=1006): 98.7%; remaining activity at 1.25 µM ([1]; Well no.=6319): 104%; remaining activity at 3.75 µM ([2]; Well no.=1006): 99.2%; remaining activity at 3.75 µM ([2]; Well no.=6319): 99.7%

Which results are given for `N=C(N)NN` [Aminoguanidine hydrochloride]?
remaining activity at 1.25 µM ([1]; Well no.=104): 93%; remaining activity at 3.75 µM ([2]; Well no.=104): 94.6%

How did the remaining activity at 1.25 µM ([1]; Well no.=1644) turn out when `Oc1ccc2c3c1O[C@H]1c4[nH]c5ccccc5c4C[C@@]4(O)[C@@H](C2)N(CC2CC2)CC[C@]314` [Naltrindole.HCl] was run?
Its remaining activity at 1.25 µM is 106%.

What about the remaining activity at 3.75 µM ([2]; Well no.=1644) of the same compound?
The remaining activity at 3.75 µM was 104%.

What does the source list for `NC(=O)Nc1cc(-c2ccccc2)sc1C(N)=O` [IKK-2 Inhibitor XI]?
remaining activity at 1.25 µM ([1]; Well no.=2838): 99.2%; remaining activity at 3.75 µM ([2]; Well no.=2838): 103%

Which remaining activity at 1.25 µM ([1]; Well no.=6053) does the source give for `CCN(Cc1ccccc1)C(=O)Cn1c(=O)n(C)c2cnc(-c3ccccc3)nc21` [XBD173] here?
The remaining activity at 1.25 µM was 102%.

And the remaining activity at 3.75 µM ([2]; Well no.=6053)?
Its remaining activity at 3.75 µM is 100%.

For `CNC1C(O)C(NC)C2OC3(O)C(=O)CC(C)OC3OC2C1O` (stereo not drawn) [Spectinomycin.2HCl], which remaining activity at 1.25 µM ([1]; Well no.=1587) is on record?
Its remaining activity at 1.25 µM is 101%.

What about the remaining activity at 3.75 µM ([2]; Well no.=1587) of the same compound?
The remaining activity at 3.75 µM was 101%.

`CC(=O)OCC(=O)[C@@]1(O)CC[C@H]2[C@@H]3CCC4=CC(=O)CC[C@]4(C)[C@H]3C(=O)C[C@@]21C` [Cortisone 21-acetate] was tested. Which remaining activity at 1.25 µM ([1]; Well no.=172) did it give?
The remaining activity at 1.25 µM was 92.9%.

And the remaining activity at 3.75 µM ([2]; Well no.=172)?
Its remaining activity at 3.75 µM is 92.8%.

For `Cc1cc2cc3c(C)cc(=O)oc3c(C)c2o1` [4,5',8-Trimethylpsoralen], which remaining activity at 1.25 µM ([1]; Well no.=3420) is on record?
The remaining activity at 1.25 µM was 99.6%.

And the remaining activity at 3.75 µM ([2]; Well no.=3420)?
The remaining activity at 3.75 µM was 95.9%.

For `O=C(O)/C(S)=C/c1c[nH]c2ccc(F)cc12` [PD 151746], which remaining activity at 1.25 µM ([1]; Well no.=8812) is on record?
Its remaining activity at 1.25 µM is 92.8%.

And the remaining activity at 3.75 µM ([2]; Well no.=8812)?
Its remaining activity at 3.75 µM is 92.9%.

For `CC[C@@H]([C@H](C)O)n1ncn(-c2ccc(N3CCN(c4ccc(OC[C@@H]5CO[C@@](Cn6cncn6)(c6ccc(F)cc6F)C5)cc4)CC3)cc2)c1=O` [Posaconazole], which remaining activity at 1.25 µM ([1]; Well no.=4763) is on record?
The remaining activity at 1.25 µM was 93.6%.

What about the remaining activity at 3.75 µM ([2]; Well no.=4763) of the same compound?
The remaining activity at 3.75 µM was 92.9%.

Which results are given for `CCCCCCCCCCCCC/C=C/[C@@H](O)[C@@H](N)CO` [D-erythro-Sphingosine]?
remaining activity at 1.25 µM ([1]; Well no.=7207): 100%; remaining activity at 3.75 µM ([2]; Well no.=7207): 96.9%

How did the remaining activity at 1.25 µM ([1]; Well no.=6262) turn out when `COc1cc(/C=C/C(O)=C/C(=O)/C=C/c2ccc(O)cc2)ccc1O` [Demethoxycurcumin] was run?
Its remaining activity at 1.25 µM is 103%.

And the remaining activity at 3.75 µM ([2]; Well no.=6262)?
The remaining activity at 3.75 µM was 98.7%.

What does the source list for `CCCCCCn1c(O)c(N=NC(=O)c2ccccc2)c2ccccc21` [MDA 19]?
remaining activity at 1.25 µM ([1]; Well no.=7099): 103%; remaining activity at 3.75 µM ([2]; Well no.=7099): 103%

With `CN(C(=O)c1ccc(F)cc1C(F)(F)F)C1CCN(c2nnc(-c3ccnn3C)c3ccccc23)CC1` [LY2940680] as the compound, how does the remaining activity at 1.25 µM ([1]; Well no.=4890) read?
Its remaining activity at 1.25 µM is 88.9%.

And the remaining activity at 3.75 µM ([2]; Well no.=4890)?
Its remaining activity at 3.75 µM is 82.4%.
